The first data set is described as follows: method code SF-CR, from DOI: 10.3891/acta.chem.scand.05-0774.
On to `COC(C)=O`, for which the logP came out at 0.18.
For `COCOC`, the lipophilicity (logP) stood at 0.
On to `CC(O)C(C)O` (centres undefined), for which the logP is -0.92.

Another data set is described as follows: method code SF-TN, from DOI: 10.3891/acta.chem.scand.05-0774.
With `CCC(Br)C(=O)O` (centres undefined), the logP amounted to 1.42.
On the same count and under the same terms, in the case of `O=C(O)CC(O)C(=O)O` (centres undefined) it was -1.26; in that of `O=C(O)CBr`, 0.41; in that of `CC(Br)C(=O)O` (centres undefined), 0.92.
Still for that read-out and setting: the figure for `O=C(O)CCCCCCCC(=O)O` is 1.59; for `CC(C)(O)C(=O)O` it is -0.36.

Experiment in another data set: not given
Compound `CC(O)CNCC(C)O` (centres undefined) had a logP of -0.82.
In turn, `CC(O)CN` (centres undefined) gave a lipophilicity (logP) of -0.96.
Regarding `C1CNCCN1`, the logP was -1.17.
For the compound `OCCNCCO`, the logP is -1.43.
The same measure, in the same setting: in the case of `NCCO` it was -1.31.

The values are drawn from the SangsterLogP compilation.
